In paper PMC2928817 (PLoS Pathogens, 2010):

Columns and labels:
[1] = target: NA of A/Osaka/180/2009 (O180r; NA H274Y) (Influenza A virus, UniProt C3W5S3, H275Y); assay type: biochemical, 2009 pandemic influenza A (H1N1) virus
[2] = target: NA of A/Vietnam/HN32060/2009 (VN32060r; NA H274Y) (Influenza A virus, UniProt C3W5S3, H275Y); assay type: biochemical, 2009 pandemic influenza A (H1N1) virus

With CC(=O)N[C@H]1[C@H]([C@H](O)[C@H](O)CO)OC(C(=O)O)=C[C@@H]1N=C(N)N [Zanamivir] the “IC50 value of O180r compared with O164s” value [1] was “comparable” and the “IC50 value of VN32060r compared with VN9727s” value [2] was “comparable”.
